Reference: patent US8952024B2, “Herbicidal pyrimidone derivatives” (E I du Pont de Nemours and Company, priority 2009, dated 2015)

What was measured:
Assay in all cases: Test B pre-/postemergence plant response
Format in all cases: in vivo
[1] = tested on: wheat (Triticum aestivum); settings: for Plant response rating, Wheat: Postemergence
Outline: (§1)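 Steps: sow seed in loam–sand soil and spray preemergence, or grow plants in peat-based medium to 1–4 leaves (2–18 cm) and spray postemergence; formulation is non-phytotoxic solvent plus surfactant; hold in greenhouse 13–15 days; score visually vs controls, 0 = no effect, 100 = complete control.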

[2] = tested on: goosegrass (Eleusine indica); settings: for Plant response rating, Goosegrass: Postemergence
Outline: as §1

[3] = tested on: johnsongrass (Sorghum halepense); settings: for Plant response rating, Johnsongrass: Postemergence
Outline: as §1

[4] = tested on: woolly cupgrass (Eriochloa villosa); settings: for Plant response rating, Cupgrass, Woolly: Postemergence
Outline: as §1

[5] = tested on: blackgrass (Alopecurus myosuroides); settings: for Plant response rating, Blackgrass: Postemergence
Outline: as §1

[6] = tested on: ragweed (common ragweed, Ambrosia elatior); settings: for Plant response rating, Ragweed: Postemergence
Outline: as §1

[7] = tested on: lambsquarters (Chenopodium album); settings: for Plant response rating, Lambsquarters: Postemergence
Outline: as §1

[8] = tested on: Italian ryegrass (Lolium multiflorum); settings: for Plant response rating, Ryegrass, Italian: Postemergence
Outline: as §1

[9] = tested on: downy bromegrass (Bromus tectorum); settings: for Plant response rating, Bromegrass, Downy: Postemergence
Outline: as §1

kochia (Kochia scoparia) = settings: for Plant response rating, Kochia: Postemergence
Outline: as §1

[10] = tested on: velvetleaf (Abutilon theophrasti); settings: for Plant response rating, Velvetleaf: Postemergence
Outline: as §1

corn (Zea mays) = settings: for Plant response rating, Corn: Postemergence
Outline: as §1

[11] = tested on: large crabgrass (Digitaria sanguinalis); settings: for Plant response rating, Crabgrass, Large: Postemergence
Outline: as §1

wild oat (Avena fatua) = settings: for Plant response rating, Oat, Wild: Postemergence
Outline: as §1

[12] = tested on: Surinam grass (Brachiaria decumbens); settings: for Plant response rating, Surinam Grass: Postemergence
Outline: as §1

[13] = tested on: yellow nutsedge (Cyperus esculentus); settings: for Plant response rating, Nutsedge, Yellow: Postemergence
Outline: as §1

soybean (Glycine max) = settings: for Plant response rating, Soybean: Postemergence
Outline: as §1

[14] = tested on: pigweed (Amaranthus retroflexus); settings: for Plant response rating, Pigweed: Postemergence
Outline: as §1

[15] = 62 g ai/ha, postemergence, 0 is no effect, 100 is complete control, 13 to 15 days
[16] = 31 g ai/ha, 0 to 100 scale (0 no effect, 100 complete control)
[17] = 125 g ai/ha, scale 0 to 100 (0 no effect, 100 complete control)
[18] = 250 g ai/ha, scale 0 to 100 (0 no effect, 100 complete control)

For `COCCCn1c(-c2cccc(F)c2)ncc(C(=O)C2=C(O)CCCC2=O)c1=O` [Compound 126], the “Wheat plant response rating (0 to 100 scale)” value [1, 15] was 15, the “Plant response rating, Wheat” value [1, 16] was 5 and the “Plant response rating, Wheat” value [1, 17] was 35. For the same compound, the “Goosegrass plant response rating (0 to 100 scale)” value [2, 15] was 70, the “Plant response rating, Goosegrass” value [2, 16] was 65 and the “Plant response rating, Goosegrass” value [2, 17] was 75. The “Plant response rating, Goosegrass” value [2, 18] was 85, the “Johnsongrass plant response rating (0 to 100 scale)” value [3, 15] was 65 and the “Plant response rating, Johnsongrass” value [3, 16] was 65. For the same compound, the “Plant response rating, Johnsongrass” value [3, 17] was 85, the “Plant response rating, Johnsongrass” value [3, 18] was 90 and the “Cupgrass, Woolly plant response rating (0 to 100 scale)” value [4, 15] was 75. The “Plant response rating, Cupgrass, Woolly” value [4, 16] was 65, the “Plant response rating, Cupgrass, Woolly” value [4, 17] was 85 and the “Plant response rating, Cupgrass, Woolly” value [4, 18] was 90. The “Blackgrass plant response rating (0 to 100 scale)” value [5, 15] was 25, the “Plant response rating, Blackgrass” value [5, 16] was 5 and the “Plant response rating, Blackgrass” value [5, 17] was 30. The “Plant response rating, Blackgrass” value [5, 18] was 45, the “Ragweed plant response rating (0 to 100 scale)” value [6, 15] was 75 and the “Plant response rating, Ragweed” value [6, 16] was 55. The “Plant response rating, Ragweed” value [6, 17] was 85, the “Plant response rating, Ragweed” value [6, 18] was 90 and the “Lambsquarters plant response rating (0 to 100 scale)” value [7, 15] was 85. For the same compound, the “Plant response rating, Lambsquarters” value [7, 16] was 70, the “Plant response rating, Lambsquarters” value [7, 17] was 85 and the “Plant response rating, Lambsquarters” value [7, 18] was 98. The “Ryegrass, Italian plant response rating (0 to 100 scale)” value [8, 15] was 5, the “Plant response rating, Ryegrass, Italian” value [8, 16] was 0 and the “Plant response rating, Ryegrass, Italian” value [8, 17] was 5. The “Plant response rating, Ryegrass, Italian” value [8, 18] was 50, the “Bromegrass, Downy plant response rating (0 to 100 scale)” value [9, 15] was 15 and the “Plant response rating, Bromegrass, Downy” value [9, 16] was 5. The “Plant response rating, Bromegrass, Downy” value [9, 17] was 30, the “Plant response rating, Bromegrass, Downy” value [9, 18] was 40 and the “Kochia plant response rating (0 to 100 scale)” value (kochia (Kochia scoparia); [15]) was 25. The “Plant response rating, Kochia” value (kochia (Kochia scoparia); [16]) was 10, the “Plant response rating, Kochia” value (kochia (Kochia scoparia); [17]) was 25 and the “Plant response rating, Kochia” value (kochia (Kochia scoparia); [18]) was 85. The “Velvetleaf plant response rating (0 to 100 scale)” value [10, 15] was 90, the “Plant response rating, Velvetleaf” value [10, 16] was 80 and the “Plant response rating, Velvetleaf” value [10, 17] was 95. The “Plant response rating, Velvetleaf” value [10, 18] was 98, the “Corn plant response rating (0 to 100 scale)” value (corn (Zea mays); [15]) was 30 and the “Plant response rating, Corn” value (corn (Zea mays); [16]) was 10. The “Plant response rating, Corn” value (corn (Zea mays); [17]) was 55, the “Plant response rating, Corn” value (corn (Zea mays); [18]) was 80 and the “Crabgrass, Large plant response rating (0 to 100 scale)” value [11, 15] was 80. The “Plant response rating, Crabgrass, Large” value [11, 16] was 75, the “Plant response rating, Crabgrass, Large” value [11, 17] was 85 and the “Plant response rating, Crabgrass, Large” value [11, 18] was 90. The “Oat, Wild plant response rating (0 to 100 scale)” value (wild oat (Avena fatua); [15]) was 10, the “Plant response rating, Oat, Wild” value (wild oat (Avena fatua); [16]) was 5 and the “Plant response rating, Oat, Wild” value (wild oat (Avena fatua); [17]) was 35. The “Plant response rating, Oat, Wild” value (wild oat (Avena fatua); [18]) was 50, the “Surinam Grass plant response rating (0 to 100 scale)” value [12, 15] was 80 and the “Plant response rating, Surinam Grass” value [12, 16] was 70. The “Plant response rating, Surinam Grass” value [12, 17] was 85, the “Plant response rating, Surinam Grass” value [12, 18] was 98 and the “Nutsedge, Yellow plant response rating (0 to 100 scale)” value [13, 15] was 75. For the same compound, the “Plant response rating, Nutsedge, Yellow” value [13, 16] was 65, the “Plant response rating, Nutsedge, Yellow” value [13, 17] was 80 and the “Plant response rating, Nutsedge, Yellow” value [13, 18] was 80. The “Soybean plant response rating (0 to 100 scale)” value (soybean (Glycine max); [15]) was 75, the “Plant response rating, Soybean” value (soybean (Glycine max); [16]) was 70 and the “Plant response rating, Soybean” value (soybean (Glycine max); [17]) was 85. For the same compound, the “Plant response rating, Soybean” value (soybean (Glycine max); [18]) was 98, the “Pigweed plant response rating (0 to 100 scale)” value [14, 15] was 95 and the “Plant response rating, Pigweed” value [14, 16] was 75. For the same compound, the “Plant response rating, Pigweed” value [14, 17] was 98 and the “Plant response rating, Pigweed” value [14, 18] was 98.
